Assay results: patent US9938273B2 (Plexxikon Inc., priority 2015, dated 2018)

Key:
[1] = tested on: MOLM-14 D835Y cells, FLT3 ITD and FLT3 D835Y; assay: Cell proliferation assay (CellTiter-Glo), MOLM-14 D835Y; type: cell-based; settings: Homo sapiens, 72 h, 3d-Growth, GMean
Procedure, shortened: (§1)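 MOLM-14 AML cells (endogenous FLT3 ITD, AC220-selected D835Y or F691L variants) or murine Ba/F3 expressing full-length FLT3 ITD/D835Y, without IL-3 for FLT3 dependence, 1×10^4 cells/well. Eight-point 1:3 series from 1 μM final, 0.2% DMSO, 3 days at 37 °C. CellTiter-Glo luminescence (ATP) gave IC50.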

[2] = target: T1, BA/F3-FLT3-ITD + D835Y cells (Homo sapiens, UniProt P36888, D835Y, cells depend on it, form not given); assay: Cell proliferation assay (CellTiter-Glo), engineered BA/F3 cells; type: cell-based, murine; settings: BaF3 FLT3 ITD/D835Y cells, 3d-Growth; read-out: BaF3_FLT3 ITD/D835Y 3d-Growth: IC50
T1 sequence (P36888 1-993 D835Y): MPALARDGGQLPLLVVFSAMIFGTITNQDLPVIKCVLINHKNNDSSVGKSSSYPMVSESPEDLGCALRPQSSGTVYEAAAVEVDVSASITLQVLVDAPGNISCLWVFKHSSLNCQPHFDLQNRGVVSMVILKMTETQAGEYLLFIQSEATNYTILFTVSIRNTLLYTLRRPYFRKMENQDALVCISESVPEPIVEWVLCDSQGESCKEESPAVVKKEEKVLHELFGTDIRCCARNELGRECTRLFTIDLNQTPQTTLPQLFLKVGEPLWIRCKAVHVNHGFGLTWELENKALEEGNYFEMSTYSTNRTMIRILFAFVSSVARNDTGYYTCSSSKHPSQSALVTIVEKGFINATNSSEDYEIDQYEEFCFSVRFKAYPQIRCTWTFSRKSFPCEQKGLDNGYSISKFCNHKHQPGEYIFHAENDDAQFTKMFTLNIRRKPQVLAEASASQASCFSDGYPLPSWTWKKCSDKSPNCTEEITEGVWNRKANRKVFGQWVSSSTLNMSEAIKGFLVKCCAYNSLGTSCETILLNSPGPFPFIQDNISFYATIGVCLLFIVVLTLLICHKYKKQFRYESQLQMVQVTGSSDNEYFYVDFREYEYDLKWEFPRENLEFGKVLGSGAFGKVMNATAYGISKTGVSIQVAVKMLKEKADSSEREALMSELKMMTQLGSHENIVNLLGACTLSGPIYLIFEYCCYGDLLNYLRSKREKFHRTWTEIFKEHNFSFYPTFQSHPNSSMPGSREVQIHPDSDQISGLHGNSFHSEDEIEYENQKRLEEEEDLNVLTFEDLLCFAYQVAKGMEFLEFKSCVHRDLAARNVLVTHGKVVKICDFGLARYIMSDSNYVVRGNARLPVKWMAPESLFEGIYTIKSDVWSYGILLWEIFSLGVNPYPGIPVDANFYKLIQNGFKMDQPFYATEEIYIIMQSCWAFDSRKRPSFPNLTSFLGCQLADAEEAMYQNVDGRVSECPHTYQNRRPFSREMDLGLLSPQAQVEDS
Procedure, shortened: as §1

SMILES | IC50 [1] [µM] | GI50 [2] [µM]
NC1CCN(C(=O)c2n[nH]c3ccc(-c4cnc5[nH]c(-c6ccccc6)cc5c4)cc23)CC1 [Compound P-0012, (4-amino-1-piperidyl)-[5-(2-phenyl-1H-pyrrolo[2,3-b]pyridin-5-yl)-1H-indazol-3-yl]methanone] | 0.0001 to 10 | 0.0001 to 10
O=S(=O)(NC1CC1)c1cccc(-c2cnc3[nH]c(C#Cc4ccccc4)cc3c2)c1 [Compound P-0014, N-cyclopropyl-3-[2-(2-phenylethynyl)-1H-pyrrolo[2,3-b]pyridin-5-yl]benzenesulfonamide] | – | 0.0001 to 10
N[C@H]1CCN(C(=O)c2n[nH]c3ccc(-c4cnc5[nH]c(-c6ccccc6)cc5c4)cc23)C1 [Compound P-0016, [(3S)-3-aminopyrrolidin-1-yl]-[5-(2-phenyl-1H-pyrrolo[2,3-b]pyridin-5-yl)-1H-indazol-3-yl]methanone] | – | 0.0001 to 10
NC1CCC(NC(=O)c2cccc(-c3cnc4[nH]c(-c5ccccc5)cc4c3)n2)CC1 (centres unmarked) [Compound P-0018, N-(4-aminocyclohexyl)-6-(2-phenyl-1H-pyrrolo[2,3-b]pyridin-5-yl)pyridine-2-carboxamide] | 0.0001 to 10 | 0.0001 to 10
CN1CCC(NC(=O)c2n[nH]c3ccc(-c4cnc5[nH]c(-c6ccccc6)cc5c4)cc23)CC1 [Compound P-0022, N-(1-methyl-4-piperidyl)-5-(2-phenyl-1H-pyrrolo[2,3-b]pyridin-5-yl)-1H-indazole-3-carboxamide] | – | 0.0001 to 10
CC1CCN(C(=O)c2n[nH]c3ccc(-c4cnc5[nH]c(-c6ccccc6)cc5c4)cc23)CC1 [Compound P-0027, (4-methyl-1-piperidyl)-[5-(2-phenyl-1H-pyrrolo[2,3-b]pyridin-5-yl)-1H-indazol-3-yl]methanone] | – | 0.0001 to 10
CNC1CCN(C(=O)c2n[nH]c3ccc(-c4cnc5[nH]c(-c6ccccc6)cc5c4)cc23)C1 (centres unmarked) [Compound P-0028, [3-(methylamino)pyrrolidin-1-yl]-[5-(2-phenyl-1H-pyrrolo[2,3-b]pyridin-5-yl)-1H-indazol-3-yl]methanone] | – | 0.0001 to 10
CNC1CCN(C(=O)c2cccc(-c3cnc4[nH]c(-c5cn(C)nc5C)cc4c3)n2)C1 (centres unmarked) [Compound P-0049, [6-[2-(1,3-dimethylpyrazol-4-yl)-1H-pyrrolo[2,3-b]pyridin-5-yl]-2-pyridyl]-[3-(methylamino)pyrrolidin-1-yl]methanone] | 0.0001 to 10 | 0.0001 to 10
c1ccc(-c2cc3cc(-c4cccc(OC5CCNCC5)n4)cnc3[nH]2)cc1 [Compound P-0050, 2-phenyl-5-[6-(4-piperidyloxy)-2-pyridyl]-1H-pyrrolo[2,3-b]pyridine] | – | 0.0001 to 10
CNC1CN(C(=O)c2cccc(-c3cnc4[nH]c(-c5ccccc5)cc4c3)n2)C1 [Compound P-0052, [3-(methylamino)azetidin-1-yl]-[6-(2-phenyl-1H-pyrrolo[2,3-b]pyridin-5-yl)-2-pyridyl]methanone] | 0.0001 to 10 | 0.0001 to 10
N[C@H]1CCN(C(=O)c2ncc(-c3cnc4[nH]c(-c5ccccc5)cc4c3)s2)C1 [Compound P-0054, [(3S)-3-aminopyrrolidin-1-yl]-[5-(2-phenyl-1H-pyrrolo[2,3-b]pyridin-5-yl)thiazol-2-yl]methanone] | – | 0.0001 to 10
CNC1CCN(C(=O)c2cccc(-c3cnc4[nH]c(-c5ccc(F)cc5)cc4c3)n2)C1 (centres unmarked) [Compound P-0055, [6-[2-(4-fluorophenyl)-1H-pyrrolo[2,3-b]pyridin-5-yl]-2-pyridyl]-[3-(methylamino)pyrrolidin-1-yl]methanone] | 0.0001 to 10 | 0.0001 to 10
CC1(C#N)CCN(C(=O)c2cccc(-c3cnc4[nH]c(-c5ccccc5)cc4c3)n2)CC1 [Compound P-0094, 4-methyl-1-[6-(2-phenyl-1H-pyrrolo[2,3-b]pyridin-5-yl)pyridine-2-carbonyl]piperidine-4-carbonitrile] | – | 0.0001 to 10
O=C(c1cccc(-c2cnc3[nH]c(-c4ccccc4)cc3c2)n1)N1CCC(N2CCOCC2)C1 (centres unmarked) [Compound P-0102, (3-morpholinopyrrolidin-1-yl)-[6-(2-phenyl-1H-pyrrolo[2,3-b]pyridin-5-yl)-2-pyridyl]methanone] | – | 0.0001 to 10
O=C(c1cccc(-c2cnc3[nH]c(-c4ccccc4)cc3c2)n1)N1CCC(C(F)(F)F)C1 (centres unmarked) [Compound P-0103, [6-(2-phenyl-1H-pyrrolo[2,3-b]pyridin-5-yl)-2-pyridyl]-[3-(trifluoromethyl)pyrrolidin-1-yl]methanone] | – | 0.0001 to 10
CN(C)C1CCN(C(=O)c2cccc(-c3cnc4[nH]c(-c5ccccc5)cc4c3)n2)C1 (centres unmarked) [Compound P-0104, [3-(dimethylamino)pyrrolidin-1-yl]-[6-(2-phenyl-1H-pyrrolo[2,3-b]pyridin-5-yl)-2-pyridyl]methanone] | – | 0.0001 to 10
N#CC1CCN(C(=O)c2cccc(-c3cnc4[nH]c(-c5ccc(F)cc5)cc4c3)n2)C1 (centres unmarked) [Compound P-0116, 1-[6-[2-(4-fluorophenyl)-1H-pyrrolo[2,3-b]pyridin-5-yl]pyridine-2-carbonyl]pyrrolidine-3-carbonitrile] | – | 0.0001 to 10

The next lines start with the values.

IC50 [1] [µM] | GI50 [2] [µM] | SMILES
0.0001 to 10 | 0.0001 to 10 | NC1CCN(C(=O)c2cccc(-c3cnc4[nH]c(-c5ccccc5)cc4c3)n2)CC1 [Compound P-0013, (4-amino-1-piperidyl)-[6-(2-phenyl-1H-pyrrolo[2,3-b]pyridin-5-yl)-2-pyridyl]methanone]
– | 0.0001 to 10 | N[C@H]1CCN(C(=O)c2cccc(-c3cnc4[nH]c(-c5ccccc5)cc4c3)n2)C1 [Compound P-0015, [(3S)-3-aminopyrrolidin-1-yl]-[6-(2-phenyl-1H-pyrrolo[2,3-b]pyridin-5-yl)-2-pyridyl]methanone]
– | 0.0001 to 10 | CC(C)(C)OC(=O)NC1CCN(C(=O)c2cccc(-c3cnc4[nH]c(-c5ccccc5)cc4c3)n2)CC1 [Compound P-0017, tert-butyl N-[1-[6-(2-phenyl-1H-pyrrolo[2,3-b]pyridin-5-yl)pyridine-2-carbonyl]-4-piperidyl]carbamate]
– | 0.0001 to 10 | CC(=O)NC1CCN(C(=O)c2cccc(-c3cnc4[nH]c(-c5ccccc5)cc4c3)n2)CC1 [Compound P-0020, N-[1-[6-(2-phenyl-1H-pyrrolo[2,3-b]pyridin-5-yl)pyridine-2-carbonyl]-4-piperidyl]acetamide]
– | 0.0001 to 10 | CC(=O)NC1CCN(C(=O)c2n[nH]c3ccc(-c4cnc5[nH]c(-c6ccccc6)cc5c4)cc23)CC1 [Compound P-0021, N-[1-[5-(2-phenyl-1H-pyrrolo[2,3-b]pyridin-5-yl)-1H-indazole-3-carbonyl]-4-piperidyl]acetamide]
– | 0.0001 to 10 | O=C(c1cccc(-c2cnc3[nH]c(-c4ccccc4)cc3c2)n1)N1CCC(CO)CC1 [Compound P-0023, [4-(hydroxymethyl)-1-piperidyl]-[6-(2-phenyl-1H-pyrrolo[2,3-b]pyridin-5-yl)-2-pyridyl]methanone]
– | 0.0001 to 10 | CCOC(=O)C1CCN(C(=O)c2cccc(-c3cnc4[nH]c(-c5ccccc5)cc4c3)n2)CC1 [Compound P-0025, ethyl 1-[6-(2-phenyl-1H-pyrrolo[2,3-b]pyridin-5-yl)pyridine-2-carbonyl]piperidine-4-carboxylate]
– | 0.0001 to 10 | NCC1CCN(C(=O)c2cccc(-c3cnc4[nH]c(-c5ccccc5)cc4c3)n2)CC1 [Compound P-0026, [4-(aminomethyl)-1-piperidyl]-[6-(2-phenyl-1H-pyrrolo[2,3-b]pyridin-5-yl)-2-pyridyl]methanone]
0.0001 to 10 | 0.0001 to 10 | CNC1CCN(C(=O)c2cccc(-c3cnc4[nH]c(-c5ccccc5)cc4c3)n2)C1 (centres unmarked) [Compound P-0040, [3-(methylamino)pyrrolidin-1-yl]-[6-(2-phenyl-1H-pyrrolo[2,3-b]pyridin-5-yl)-2-pyridyl]methanone]
– | 0.0001 to 10 | COC1CCN(C(=O)c2cccc(-c3cnc4[nH]c(-c5ccccc5)cc4c3)n2)CC1 [Compound P-0098, (4-methoxy-1-piperidyl)-[6-(2-phenyl-1H-pyrrolo[2,3-b]pyridin-5-yl)-2-pyridyl]methanone]
– | 0.0001 to 10 | CS(=O)(=O)NC1CCN(C(=O)c2cccc(-c3cnc4[nH]c(-c5ccccc5)cc4c3)n2)C1 (centres unmarked) [Compound P-0101, N-[1-[6-(2-phenyl-1H-pyrrolo[2,3-b]pyridin-5-yl)pyridine-2-carbonyl]pyrrolidin-3-yl]methanesulfonamide]
